According to patent US11453695B2, “Nucleoside analogues and methods of use thereof” (priority 2016, dated 2022):
Read-outs that look alike come from different tables or passages of the source.

Key:
[1] = system: HepG2 (liver human hepatocellular carcinoma) cell line; experiment: Cell viability assay (Cell Titer Glo), growth inhibition; format: cell-based
Procedure: (§1) Growth inhibition of the compound comprises in the invention was tested in vitro using human cancer cell cultures
(§2) HepG2 (liver human hepatocellular carcinoma), BxPC3 and Capan-2 (adenocarcinomas), A549 (lung carcinoma), HCT-116 (colorectal carcinoma) and MCF-7 (breast tumor) cell lines were obtained from ATCC. The HepG2, BxPC3, Capan-2 and MCF-7 cells were placed into 75 ccm^3 tissue culture flasks and grown at 37° C. under a humidified 5% CO2 atmosphere in EMEM and RPMI-1640 medium respectively with 10% fetal bovine serum and 2% penicillin-streptomycin. Trypsin (0.05%) was used to detach cells from the bottom of flask.
(§3) Cells were plated in 96 well plates at a density of 10^4 cells/well and grown for 24 h. Cells were treated with different concentrations of the test compounds or vehicle alone (DMSO) and grown at 37° C. under a humidified 5% CO2 atmosphere. Their corresponding medium was used to dilute the 10 mM stocks of each compound to obtain 1 mM stock solutions and subsequently, the treatment concentrations. After 96 hours of incubation, the plates were equilibrated at room temperature for 30 minutes, […] of Cell Titer Glo® Luminometric Cell Viability Assay reagent (Promega) was added into each well, put on an orbital shaker for 2 minutes and incubated for 10 minutes at room temperature. The plate was transferred to a luminometer (Glomax Promega) and the luminescent signal was recorded. Each treatment at different concentration and the control group were triplicates or duplicates.
(§4) This is a homogeneous method to determine the number of viable cells in culture based on quantification of the ATP present which signals the presence of metabolically active cells.

[2] = system: BxPC3 (pancreas adenocarcinoma) cell line; experiment: as above; format: cell-based, human
Procedure: as §1, §2, §3, §4

[3] = system: Capan-2 (pancreas adenocarcinoma) cell line; experiment: as above; format: cell-based, human
Procedure: as §1, §2, §3, §4

[4] = system: Panc-1 (pancreas) cells; experiment: Growth inhibition in cancer cell lines (FIG. 5); format: cell-based, human; settings: KRAS mutation
Description: Molecules such as LCB-2151 and LCB-2132 (Group B) and LCB-2179 (Group C) indeed show antiproliferative activities against cancer cell lines with KRAS mutations. FIG. 5 presents the activity of LCB-2151, LCB-2179, LCB-2132 and Gemcitabine in different cancer cell lines. Most liver and pancreas cell lines have the KRAS protein (oncogene identified in Kiersten rat sarcoma virus), which alters its signal transduction pathway, are resistant to Gemcitabine. […] Both HepG-2 (liver) and Panc-1 (pancreas) have the KRAS mutation and are resistant to Gemcitabine.
as §3

[5] = system: KRAS mutated human pancreatic and liver cancer cell lines (HepG-2, Panc-1, Capan-2); experiment: Activity in KRAS mutated, Gemcitabine-resistant cancer cell lines; format: cell-based
Procedure: Liver and pancreatic cancer patients have an extremely poor survival rate (Table 1).
as §3

[6] = system: HCMV/AD169; experiment: Antiviral effect, cytopathic effect (CPE) of HCMV in HFF cells; format: cell-based, Human cytomegalovirus (HCMV)
Procedure: (§5) Table 4 presents results for Human cytomegalovirus (HCMV), which causes serious diseases in immune compromised hosts, particularly for transplantation recipient. Cytopathic effect (CPE) of A1-169 HMCV variant virus was measured using Human fibroblast cell lines (HFF). Cell titer were measured using Cellglo assay and luminescence in presence or absence of group A of molecules. […] 90% reduction of viral load was attained at 0.25 μM and no cell death was measured in presence of 150 μM of the tested compound, testifying of its lack of intrinsic cell toxicity. Ganciclovir the clinical gold standard in the treatment of HCMV has bee reported as active against the same strand at 1 to 3 μM.

[7] = system: Human fibroblast cell lines (HFF); experiment: Cell toxicity in the HCMV assay (Cellglo, luminescence); format: cell-based; settings: 150 μM; HFF cells
Procedure: as §5

[8] = as above; format: cell-based, human; settings: human, human fibroblast cell lines (HFF); HFF cells
Procedure: as §5

[9] = system: HCT-116 (colorectal carcinoma) cell line; experiment: Cell viability assay (Cell Titer Glo), growth inhibition; format: cell-based; settings: Homo sapiens, 96 hours of incubation, read-out: Growth Inhibition (%) At 20 μM, HCT-116 (Colon)
Procedure: as §1, §2, §3, §4

[10] = system: MCF-7 (breast tumor) cell line; experiment: as above; format: cell-based; settings: Homo sapiens, MCF7, 96 hours of incubation
Procedure: as §1, §2, §3, §4

[11] = system: A549 (lung carcinoma) cell line; experiment: as above; format: cell-based; settings: Homo sapiens, 96 hours of incubation
Procedure: as §1, §2, §3, §4

[12] = system: pancreatic cancer cells; settings: background, reported; cited from earlier work
[13] = BXPC3 (pancreas), KRAS wild type
[14] = Homo sapiens, HepG2, 96 h, read-out: Growth Inhibition (%) At 20 μM, HepG2 (Liver)
[15] = Homo sapiens, BXPC-3, 96 h, read-out: Growth Inhibition (%) At 20 μM, BxPC3 (Pancreas)
[16] = Homo sapiens, Capan-2, 96 h, read-out: Growth Inhibition (%) At 20 μM, Capan-2 (Pancreas)
[17] = Homo sapiens, HepG2; read-out: IC50 (μM), HepG2 (Liver), antiproliferative activity
[18] = Homo sapiens, BXPC-3; read-out: IC50 (μM), BxPC3 (Pancreas), antiproliferative activity
[19] = Homo sapiens, Capan-2; read-out: IC50 (μM), Capan-2 (Pancreas), antiproliferative activity

| Compound | inhibition at 20 µM [9] | inhibition at 20 µM [10] | inhibition at 20 µM [11] | inhibition at 20 µM [1, 14] | inhibition at 20 µM [2, 15] | inhibition at 20 µM [3, 16] | also measured |
| --- | --- | --- | --- | --- | --- | --- | --- |
| CC(C)OC(=O)[C@H](C)NP(=O)(OC[C@H]1O[C@@H](n2ccc(NC(=O)CC(C)(C)CC[C@H](CCSCc3ccc(C(F)(F)F)cc3)SCc3ccc(C(F)(F)F)cc3)nc2=O)[C@](C)(CO)[C@@H]1O)Oc1ccccc1 (stereo partly drawn) [LCB-2179, Isopropyl ((((2R,3S,4R,5R)-5-(4-(3,3-dimethyl-6,8-bis((4-(trifluoromethyl)benzyl)thio)octanamido)-2-oxopyrimidin-1(2H)-yl)-3-hydroxy-4-(hydroxymethyl)-4-methyltetrahydrofuran-2-yl)methoxy)(phenoxy)phosphoryl)-L-alaninate] |  |  |  |  |  |  | growth inhibition (FIG. 5), in words ([1]; HepG-2 (liver), KRAS mutation): block completely the growth; IC50 ([1]; Homo sapiens, HepG2, read-out: IC50 (μM), HepG2 (Liver), antiproliferative activity): 15 µM; growth inhibition (FIG. 5), in words [2, 13]: block completely the growth; IC50 ([2]; Homo sapiens, BXPC-3, read-out: IC50 (μM), BxPC3 (Pancreas), antiproliferative activity): 7 µM; growth inhibition (FIG. 5), in words ([3]; Capan-2): block completely the growth; IC50 ([3]; Homo sapiens, Capan-2, read-out: IC50 (μM), Capan-2 (Pancreas), antiproliferative activity): 15 µM; growth inhibition (FIG. 5), in words [4]: block completely the growth; EC90 activity against KRAS mutated cancer cell lines resistant to Gemcitabine [5]: show EC90 activity |
| CC(C)OC(=O)[C@H](C)NP(=O)(OC[C@H]1O[C@@H](n2ccc(N)nc2=O)[C@H](F)C1(C)CO)Oc1ccccc1 (some centres unmarked) [LCB-2187] |  |  |  |  |  |  | EC50 ([6]; Human betaherpesvirus 5, AD169, HFF, read-out: EC50 (μM), antiviral effect): < 0.05 µM; EC90 ([6]; Human betaherpesvirus 5, HCMV/AD169 in HFF cells): 0.25 µM; cell death in presence of the tested compound [7]: no cell death; CC50 [8]: > 150 µM |
| CC(C)OC(=O)[C@H](C)NP(=O)(OC[C@H]1O[C@@H](n2cnc3c(N)nc(Cl)nc32)[C@H](F)C1(C)COP(=O)(N[C@@H](C)C(=O)OC(C)C)Oc1ccccc1)Oc1ccccc1 (some centres unmarked) [LCB2080] | 40% | 79% | 34% | 0% | 16% | 58% |  |
| CC(C)OC(=O)[C@H](C)NP(=O)(OC[C@H]1O[C@@H](n2cnc3c(N)ncnc32)C(F)(F)C1(C)COP(=O)(N[C@@H](C)C(=O)OC(C)C)Oc1ccccc1)Oc1ccccc1 (some centres unmarked) [LCB2092] | 60% | 54% | 25% | 16% | 62% | 48% |  |
| CC(C)(CCC(CCSCc1ccc(F)cc1)SCc1ccc(F)cc1)CC(=O)Nc1ccn([C@@H]2O[C@H](CO)[C@@](C)(CO)C2(F)F)c(=O)n1 (stereo partly drawn) [LCB-2140, N-(1-((2R,4R,5S)-3,3-difluoro-4,5-bis(hydroxymethyl)-4-methyltetrahydrofuran-2-yl)-2-oxo-1,2-dihydropyrimidin-4-yl)-6,8-bis((4-fluorobenzyl)thio)-3,3-dimethyloctanamide] |  |  |  |  |  |  | IC50 [1, 17]: 8 µM; IC50 [2, 18]: 8 µM; IC50 [3, 19]: 12.5 µM |
| COc1nc(Cl)nc2c1ncn2[C@@H]1O[C@H](COP(=O)(N[C@@H](C)C(=O)OC(C)C)Oc2ccccc2)C(C)(COP(=O)(N[C@@H](C)C(=O)OC(C)C)Oc2ccccc2)[C@H]1F (some centres unmarked) [LCB2079] | 51% | 96% | 70% | 72% | 40% | 50% | inhibition at 50 µM ([10]; 50 μM): > 96% |
| CC(C)OC(=O)[C@H](C)NP(=O)(OC[C@H]1O[C@@H](n2cnc3c(N)nc(Cl)nc32)C(F)(F)C1(C)COP(=O)(N[C@@H](C)C(=O)OC(C)C)Oc1ccccc1)Oc1ccccc1 (some centres unmarked) [LCB2105] | 53% |  |  |  | 47% | 48% |  |
| CC(C)OC(=O)[C@H](C)NP(=O)(OC[C@H]1O[C@@H](n2cnc3c(N)ncnc32)C(F)(F)C1(C)CO)Oc1ccccc1 (some centres unmarked) [LCB2093] | 28% | 14% | 0% | 6% | 6% | 22% |  |
| CC(C)(CCC(CCSCc1ccc(C(F)(F)F)cc1)SCc1ccc(C(F)(F)F)cc1)CC(=O)Nc1ccn([C@@H]2O[C@H](CO)[C@@](C)(CO)C2(F)F)c(=O)n1 (stereo partly drawn) [LCB-2139, N-(1-((2R,4R,5S)-3,3-difluoro-4,5-bis(hydroxymethyl)-4-methyltetrahydrofuran-2-yl)-2-oxo-1,2-dihydropyrimidin-4-yl)-3,3-dimethyl-6,8-bis((4-(trifluoromethyl)benzyl)thio)octanamide] |  |  |  |  |  |  | IC50 [1, 17]: 8 µM; IC50 [2, 18]: 8 µM; IC50 [3, 19]: 8 µM |
| Nc1ccn([C@@H]2O[C@H](CO)[C@@H](O)C2(F)F)c(=O)n1 [Gemcitabine, reference compound] |  |  |  |  |  |  | plateau of inhibition (FIG. 5) ([1]; HepG-2 (liver), KRAS mutation; first of the two plateaus named): 50%; growth inhibition (FIG. 5), in words [2, 13]: growth is blocked; growth inhibition (FIG. 5), in words ([3]; Capan-2): no growth inhibition; plateau of inhibition (FIG. 5) ([4]; second of the two plateaus named): 30% |
| CC(C)(CCC(CCSCc1ccc(C(F)(F)F)cc1)SCc1ccc(C(F)(F)F)cc1)CC(=O)Nc1ccn([C@H]2CC(O)[C@@H](CO)O2)c(=O)n1 (some centres unmarked) [LCB-2132] |  |  |  |  |  |  | EC90 activity against KRAS mutated cancer cell lines resistant to Gemcitabine [5]: show EC90 activity |
| CC(C)OC(=O)[C@H](C)NP(=O)(OC[C@H]1O[C@@H](n2cnc3c(NCc4ccccc4)ncnc32)C(F)(F)C1(C)COP(=O)(N[C@@H](C)C(=O)OC(C)C)Oc1ccccc1)Oc1ccccc1 (some centres unmarked) [LCB2095] | 31% | 49% | 3% | 0% | 67% | 46% |  |
| CC(C)OC(=O)[C@H](C)NP(=O)(OC[C@H]1O[C@@H](n2cnc3c(NCc4ccccc4)nc(Cl)nc32)[C@H](F)C1(C)COP(=O)(N[C@@H](C)C(=O)OC(C)C)Oc1ccccc1)Oc1ccccc1 (some centres unmarked) [LCB2076] | 10% | 69% |  | 0% | 25% | 14% |  |
| CC(C)(CC[C@H](CCSCc1ccc(C(F)(F)F)cc1)SCc1ccc(C(F)(F)F)cc1)CC(=O)Nc1ccn([C@@H]2O[C@H](CO)[C@@](C)(CO)C2(F)F)c(=O)n1 [LCB-2151, (R)—N-(1-((2R,4R,5S)-3,3-difluoro-4,5-bis(hydroxymethyl)-4-methyltetrahydrofuran-2-yl)-2-oxo-1,2-dihydropyrimidin-4-yl)-3,3-dimethyl-6,8-bis((4-(trifluoromethyl)benzyl)thio) octanamide] |  |  |  |  |  |  | growth inhibition (FIG. 5), in words ([1]; HepG-2 (liver), KRAS mutation): block completely the growth; IC50 [1, 17]: 8 µM; growth inhibition (FIG. 5), in words [2, 13]: block completely the growth; IC50 [2, 18]: 5 µM; growth inhibition (FIG. 5), in words ([3]; Capan-2): block completely the growth; IC50 [3, 19]: 8 µM; growth inhibition (FIG. 5), in words [4]: block completely the growth; EC90 activity against KRAS mutated cancer cell lines resistant to Gemcitabine [5]: show EC90 activity |
| CCCCCCCC(=O)Nc1ccn([C@@H]2O[C@H](CO)[C@@H](O)C2(F)F)c(=O)n1 |  |  |  |  |  |  | EC50 [12]: 100 µM |
